# Reference: PubChem BioAssay AID1963835 (Molecular Pharmacology Branch, DTP, NCI, 2024)
# System: 699152-130-R-J1-PDC complex spheroid viability
# Assay: Anticancer human tumor 699152-130-R-J1-PDC patient-derived pancreatic carcinoma cell line growth inhibition [POLQ]
# Details: for IC50: curve of first compound; for viability, T/C: stronger effect = lower value
# In short: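 Growth inhibition in 3D: complex spheroids (tumor PDC, HUVEC, MSC) treated with POLQ inhibitor combinations; where Cmax unknown, highest tested concentration 10 microM, except SN-38 at 1 microM.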
# [1] = second compound 0.0316 µM, first compound 0.0316 µM
# [2] = second compound 0.0316 µM, first compound 0.1 µM
# [3] = second compound 0.0316 µM, first compound 0.316 µM
# [4] = second compound 0.0316 µM, first compound 1 µM
# [5] = second compound 0.0316 µM, first compound 3.16 µM
# [6] = second compound 0.0316 µM, first compound 10 µM
# [7] = second compound 0.1 µM, first compound 0.0316 µM
# [8] = second compound 0.1 µM, first compound 0.1 µM
# [9] = second compound 0.1 µM, first compound 0.316 µM
# [10] = second compound 0.1 µM, first compound 1 µM
# [11] = second compound 0.1 µM, first compound 3.16 µM
# [12] = second compound 0.1 µM, first compound 10 µM
# [13] = second compound 0.316 µM, first compound 0.0316 µM
# [14] = second compound 0.316 µM, first compound 0.1 µM
# [15] = second compound 0.316 µM, first compound 0.316 µM
# [16] = second compound 0.316 µM, first compound 1 µM
# [17] = second compound 0.316 µM, first compound 3.16 µM
# [18] = second compound 0.316 µM, first compound 10 µM
# [19] = second compound 1 µM, first compound 0.0316 µM
# [20] = second compound 1 µM, first compound 0.1 µM
# [21] = second compound 1 µM, first compound 0.316 µM
# [22] = second compound 1 µM, first compound 1 µM
# [23] = second compound 1 µM, first compound 3.16 µM
# [24] = second compound 1 µM, first compound 10 µM
# [25] = second compound 3.16 µM, first compound 0.0316 µM
# [26] = second compound 3.16 µM, first compound 0.1 µM
# [27] = second compound 3.16 µM, first compound 0.316 µM
# [28] = second compound 3.16 µM, first compound 1 µM
# [29] = second compound 3.16 µM, first compound 3.16 µM
# [30] = second compound 3.16 µM, first compound 10 µM
# [31] = second compound 10 µM, first compound 0.0316 µM
# [32] = second compound 10 µM, first compound 0.1 µM
# [33] = second compound 10 µM, first compound 0.316 µM
# [34] = second compound 10 µM, first compound 1 µM
# [35] = second compound 10 µM, first compound 3.16 µM
# [36] = second compound 10 µM, first compound 10 µM
# 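Also: spheroids exposed to agents for 7 days before viability reading.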
# 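For viability, T/C in this document: percent of DMSO vehicle control viability so 100% = vehicle and 0% = no viable signal.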
smiles,measurement,setting,value
COc1cc2cc(C(=O)CCC(=O)O)sc2cc1OC + Nc1ccc(C#CCN(C(=O)Cc2ncc(C(F)(F)F)cc2C(F)(F)F)c2ccc(F)cc2)nn1,IC50,second compound 0.0316 µM,> 10 µM
same,IC50,second compound 0.1 µM,> 10 µM
same,IC50,second compound 0.316 µM,> 10 µM
same,IC50,second compound 1 µM,> 10 µM
same,IC50,second compound 3.16 µM,> 10 µM
same,IC50,second compound 10 µM,> 10 µM
same,"viability, T/C",[1],88.3%
same,"viability, T/C",[2],94%
same,"viability, T/C",[3],90.2%
same,"viability, T/C",[4],98.3%
same,"viability, T/C",[5],102%
same,"viability, T/C",[6],88.9%
same,"viability, T/C",[7],99%
same,"viability, T/C",[8],93.8%
same,"viability, T/C",[9],95.5%
same,"viability, T/C",[10],110%
same,"viability, T/C",[11],107%
same,"viability, T/C",[12],106%
same,"viability, T/C",[13],104%
same,"viability, T/C",[14],97.3%
same,"viability, T/C",[15],90.3%
same,"viability, T/C",[16],105%
same,"viability, T/C",[17],105%
same,"viability, T/C",[18],104%
same,"viability, T/C",[19],102%
same,"viability, T/C",[20],94.2%
same,"viability, T/C",[21],133%
same,"viability, T/C",[22],96.9%
same,"viability, T/C",[23],110%
same,"viability, T/C",[24],97.8%
same,"viability, T/C",[25],119%
same,"viability, T/C",[26],122%
same,"viability, T/C",[27],104%
same,"viability, T/C",[28],102%
same,"viability, T/C",[29],91.8%
same,"viability, T/C",[30],102%
same,"viability, T/C",[31],114%
same,"viability, T/C",[32],124%
same,"viability, T/C",[33],121%
same,"viability, T/C",[34],111%
same,"viability, T/C",[35],112%
same,"viability, T/C",[36],109%
COc1cccc2c1C(=O)c1c(O)c3c(c(O)c1C2=O)CC(O)(C(=O)CO)CC3OC1CC(N)C(O)C(C)O1 (stereo unspecified) + Nc1ccc(C#CCN(C(=O)Cc2ncc(C(F)(F)F)cc2C(F)(F)F)c2ccc(F)cc2)nn1,IC50,second compound 0.0316 µM,0.353 µM
same,IC50,second compound 0.1 µM,0.409 µM
same,IC50,second compound 0.316 µM,0.377 µM
same,IC50,second compound 1 µM,0.205 µM
same,IC50,second compound 3.16 µM,0.263 µM
same,IC50,second compound 10 µM,0.419 µM
same,"viability, T/C",[1],78%
same,"viability, T/C",[2],61.9%
same,"viability, T/C",[3],51.9%
same,"viability, T/C",[4],36.6%
same,"viability, T/C",[5],2.41%
same,"viability, T/C",[6],9.62%
same,"viability, T/C",[7],76.7%
same,"viability, T/C",[8],69.8%
same,"viability, T/C",[9],51.9%
same,"viability, T/C",[10],37.5%
same,"viability, T/C",[11],3%
same,"viability, T/C",[12],7.86%
same,"viability, T/C",[13],78.9%
same,"viability, T/C",[14],73.3%
same,"viability, T/C",[15],49.7%
same,"viability, T/C",[16],35.7%
same,"viability, T/C",[17],5.24%
same,"viability, T/C",[18],9.53%
same,"viability, T/C",[19],85%
same,"viability, T/C",[20],57.9%
same,"viability, T/C",[21],46.7%
same,"viability, T/C",[22],28.6%
same,"viability, T/C",[23],1.69%
same,"viability, T/C",[24],12.1%
same,"viability, T/C",[25],85.2%
same,"viability, T/C",[26],61.8%
same,"viability, T/C",[27],51.2%
same,"viability, T/C",[28],28.4%
same,"viability, T/C",[29],2.48%
same,"viability, T/C",[30],10.9%
same,"viability, T/C",[31],80.6%
same,"viability, T/C",[32],72%
same,"viability, T/C",[33],56.1%
same,"viability, T/C",[34],31.9%
same,"viability, T/C",[35],3.65%
same,"viability, T/C",[36],10.6%
CC1COCCN1c1cc(C2(S(C)(=N)=O)CC2)nc(-c2ccnc3[nH]ccc23)n1 (stereo unspecified) + COC1C(OC(N)=O)C(O)C(Oc2ccc3c(O)c(NC(=O)c4ccc(O)c(CC=C(C)C)c4)c(=O)oc3c2C)OC1(C)C,IC50,second compound 0.0316 µM,> 10 µM
same,IC50,second compound 0.1 µM,> 10 µM
same,IC50,second compound 0.316 µM,> 10 µM
same,IC50,second compound 1 µM,> 10 µM
same,IC50,second compound 3.16 µM,> 10 µM
same,IC50,second compound 10 µM,> 10 µM
same,"viability, T/C",[1],103%
same,"viability, T/C",[2],102%
same,"viability, T/C",[3],95.4%
same,"viability, T/C",[4],96.6%
same,"viability, T/C",[5],79%
same,"viability, T/C",[6],69.3%
same,"viability, T/C",[7],89.8%
same,"viability, T/C",[8],88%
same,"viability, T/C",[9],90.2%
same,"viability, T/C",[10],101%
same,"viability, T/C",[11],73.3%
same,"viability, T/C",[12],60.4%
same,"viability, T/C",[13],98%
same,"viability, T/C",[14],101%
same,"viability, T/C",[15],106%
same,"viability, T/C",[16],88.3%
same,"viability, T/C",[17],78.8%
same,"viability, T/C",[18],63%
same,"viability, T/C",[19],119%
same,"viability, T/C",[20],97.6%
same,"viability, T/C",[21],108%
same,"viability, T/C",[22],92.9%
same,"viability, T/C",[23],77.8%
same,"viability, T/C",[24],66.5%
same,"viability, T/C",[25],108%
same,"viability, T/C",[26],99.2%
same,"viability, T/C",[27],98.1%
same,"viability, T/C",[28],86.4%
same,"viability, T/C",[29],69.3%
same,"viability, T/C",[30],64.5%
same,"viability, T/C",[31],104%
same,"viability, T/C",[32],107%
same,"viability, T/C",[33],90.7%
same,"viability, T/C",[34],90.7%
same,"viability, T/C",[35],86%
same,"viability, T/C",[36],87.3%
